Values joined by “and” are separate entries in the source; they are usually repeats but may differ in a detail not shown here. Identical values can stand only once.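 The compound was tested at five concentrations on cells cultured in 96-well plates, with a 48-hour exposure period. GI50: concentration for 50% inhibition of growth. The concentration for full growth arrest is given as TGI.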
Experiments:
Assay in all cases: DTP human tumour cell line panel, 48 h
SK-MEL-2 melanoma = tested on: SK-MEL-2 melanoma
K-562 leukemia = tested on: K-562 leukemia
OVCAR-4 ovarian = tested on: OVCAR-4 ovarian
SN12C renal = tested on: SN12C renal
HCC-2998 colon = tested on: HCC-2998 colon
HL-60(TB) leukemia = tested on: HL-60(TB) leukemia
SF-539 CNS = tested on: SF-539 CNS
SR leukemia = tested on: SR leukemia
A498 renal = tested on: A498 renal
HOP-92 NSCLC = tested on: HOP-92 NSCLC

SMILES | TGI (SK-MEL-2 melanoma) | TGI (K-562 leukemia) | TGI (OVCAR-4 ovarian) | TGI (SN12C renal) | TGI (HCC-2998 colon) | TGI (HL-60(TB) leukemia) | TGI (SF-539 CNS) | TGI (SR leukemia) | TGI (A498 renal) [µM] | TGI (HOP-92 NSCLC) | GI50 (SR leukemia) | GI50 (A498 renal) [µM] | GI50 (SK-MEL-2 melanoma) [µM] | GI50 (OVCAR-4 ovarian) [µM] | GI50 (HOP-92 NSCLC) [µM] | GI50 (SN12C renal) [µM] | GI50 (HCC-2998 colon) [µM] | GI50 (SF-539 CNS) [µM] | GI50 (K-562 leukemia) [µM]
CCSc1nc(-c2cccs2)nc2ccc(I)cc12 | > 100 µM | > 100 µM | > 100 µM | > 100 µM | > 100 µM | > 100 µM | > 100 µM | > 100 µM |  |  |  |  |  |  |  |  |  |  | 
CC1C(=O)C(C)C(c2ccco2)N(N=O)C1c1ccco1 (stereo unspecified) | > 100 µM | > 100 µM | > 100 µM | > 100 µM | > 100 µM | > 100 µM | > 100 µM |  | > 100 | > 100 µM |  |  |  |  |  |  |  |  | 
C[n+]1c2ccccc2c(CNC(CS)C(=O)O)c2ccccc21 (stereo unspecified) | 76.8 µM | > 100 µM | > 100 µM | > 100 µM | > 100 µM | 43.4 µM | 35.8 µM | 32.4 µM | 53.8 | 52 µM |  |  |  |  |  |  |  |  | 
O=C(NC(Cc1ccc(I)cc1)C(=O)O)c1ccc(Cl)cc1 (stereo unspecified) | > 100 µM | > 100 µM | > 100 µM | > 100 µM | > 100 µM | > 100 µM | > 100 µM |  | > 100 | > 100 µM |  |  |  |  |  |  |  |  | 
COC(=O)c1ccccc1C1=C([N+](=O)[O-])C(c2cccc(Br)c2)C(C#N)=C(N)O1 (stereo unspecified) | > 100 µM | 76.5 µM |  | > 100 µM | > 100 µM | 70.6 µM | > 100 µM | > 100 µM |  | 62.1 µM |  |  |  |  |  |  |  |  | 
COc1cc([N+](=O)[O-])ccc1N1C(=O)C2c3[nH]c4ccccc4c3C3CCC(C(C)(C)C)CC3C2C1=O (stereo unspecified) | > 100 µM |  | > 100 µM | > 100 µM | > 100 µM | > 100 µM | > 100 µM | > 100 µM | > 100 | > 100 µM |  |  |  |  |  |  |  |  | 
CCOP(=O)(OCC)C(Nc1cccc(F)c1)c1ccc(N(C)C)cc1 (stereo unspecified) | > 100 µM | > 100 µM | > 100 µM | > 100 µM | > 100 µM | > 100 µM | > 100 µM | > 100 µM | > 100 | > 100 µM |  |  |  |  |  |  |  |  | 
CN(C)CCCN1c2ccc([N+](=O)[O-])cc2CCc2cc([N+](=O)[O-])ccc21 | 36.9 µM and 32.4 µM | 59.5 µM and 31.2 µM | 14 µM and 31.3 µM | 29.3 µM and 28.4 µM | 21.9 µM and 24.7 µM | 31 µM and 30.1 µM | 30.6 µM and 37.8 µM | > 100 µM and 31.4 µM | 22.5 | 20 µM and 18 µM | 30.4 µM and 13.1 µM |  |  |  |  |  |  |  | 
C[N+](C)(C)CCN[N+]1(C)CCCc2ccccc21 (stereo unspecified) | > 100 µM | > 100 µM | > 100 µM | > 100 µM | > 100 µM | > 100 µM | > 100 µM | > 100 µM | 35.1 | > 100 µM |  |  |  |  |  |  |  |  | 
CC1(O)COCCCCOc2c(CN)cccc2NC(=O)c2nc(cnc2N)-c2ccc(cc2)S(=O)(=O)C(C)(C)C1 (stereo unspecified) | 3.36 µM |  | 2.71 µM | 2.66 µM | 2.87 µM |  | 1.67 µM | 0.391 µM | 1.43 | 2.74 µM | < 0.01 µM | 0.0163 | 1.74 | 1.29 | 1.31 | 1.27 | 1.48 | 0.03 | 
COC(=O)NC1C(C)OC(OC2C/C=C(/C)C3C=CC4C(OC5CC(OC6CC(OC7CC(O)C(O)C(C)O7)C(OC7CC(O)C(OC)C(C)O7)C(C)O6)C(O)C(C)O5)C(C)CC(C)C4C3(C)/C(O)=C3\C(=O)OC4(CC(C)C(CO)=CC4/C=C\2C)C3=O)CC1(C)[N+](=O)[O-] (stereo unspecified) | 87.2 µM |  | 46.2 µM | > 100 µM | 18.9 µM | 11.4 µM | > 100 µM | 24.2 µM | 57.9 | 32.5 µM |  |  |  |  |  |  |  |  | 
c1ccc([P+](c2ccccc2)(c2ccccc2)c2ccc(-c3ccc([P+](c4ccccc4)(c4ccccc4)c4ccccc4)cc3)cc2)cc1 | 62 µM | > 100 µM | 94.8 µM | 97.1 µM | > 100 µM | > 100 µM | > 100 µM |  | 10.3 |  |  |  |  |  |  |  |  |  | 
CCc1ccc2c(c1)C(=O)c1c-2n(CCCN)c(=O)c2cc([N+](=O)[O-])ccc12 |  | 0.756 µM | 3 µM | 2.95 µM | 1.12 µM |  | 3.01 µM |  |  | 4.06 µM |  |  |  | 1.39 | 2.34 | 1.48 | 0.376 | 1.6 | 0.243
CCCCCCCN(CCCCCCC)CC(O)c1cc2ccccc2c2cc(Br)ccc12 (stereo unspecified) | 69.9 µM | > 100 µM | > 100 µM | 46.7 µM | 45.7 µM | > 100 µM | > 100 µM | > 100 µM | > 100 | 77 µM |  |  |  |  |  |  |  |  | 
CS(=O)(=O)OCCN(CCOS(C)(=O)=O)c1ccc(/C=N/Nc2ncnc3nc[nH]c23)cc1 | 39.2 µM | > 100 µM | 60 µM | > 100 µM | 39.5 µM | 27.1 µM | 49.4 µM | 46 µM | 60.6 | 63.5 µM |  |  |  |  |  |  |  |  | 
Oc1ccc(-c2nc3cc(F)ccc3s2)cc1 | 36.9 µM | 72.3 µM | 36.9 µM | 53.3 µM | 28.3 µM | > 100 µM |  | 16 µM |  | 47.1 µM |  |  |  |  |  |  |  |  | 

SMILES | TGI (SK-MEL-2 melanoma) | TGI (K-562 leukemia) | TGI (OVCAR-4 ovarian) | TGI (SN12C renal) | TGI (HCC-2998 colon) | TGI (HL-60(TB) leukemia) | TGI (SF-539 CNS) | TGI (SR leukemia) | TGI (A498 renal) [µM] | TGI (HOP-92 NSCLC) | GI50 (SR leukemia) | GI50 (A498 renal) [µM] | GI50 (SK-MEL-2 melanoma) [µM] | GI50 (OVCAR-4 ovarian) [µM] | GI50 (HOP-92 NSCLC) [µM] | GI50 (SN12C renal) [µM] | GI50 (HCC-2998 colon) [µM] | GI50 (SF-539 CNS) [µM] | GI50 (K-562 leukemia) [µM]
Cc1c2cc[n+](C)cc2c(C)c2c1oc1ccccc12 | 15.8 µM | 34.9 µM | 21.8 µM | 4.57 µM | 12.3 µM | > 73.2 µM | 13 µM | 30.5 µM | > 69 | 32.7 µM |  |  |  |  |  |  |  |  | 
c1c2c(cc3c1OCO3)-c1cc3ccc4c(c3c[n+]1CC2)OCO4 | > 12.5 µM | > 12.5 µM | > 12.5 µM | > 12.5 µM | > 12.5 µM | > 4.93 µM | 3.12 µM | > 12.5 µM | > 12.5 | > 12.5 µM |  |  |  |  |  |  |  |  | 
Cc1[nH]n(-c2ccccc2)c(=O)c1C(N(CCc1ccccc1)C1=NCC(C)S1)(C(F)(F)F)C(F)(F)F (stereo unspecified) | 22.4 µM | > 100 µM | > 100 µM | 48.5 µM | 34 µM | 52.5 µM | 32.3 µM | 90.4 µM | 30.9 | 58.5 µM |  |  |  |  |  |  |  |  | 
CC1CC(Br)C(=O)O1 (stereo unspecified) | > 100 µM | > 100 µM | > 100 µM | > 100 µM | > 100 µM | > 100 µM | > 100 µM |  | > 100 | > 100 µM |  |  |  |  |  |  |  |  | 
O=C1OC2(OC2c2ccc(Cl)cc2)c2ccccc21 (stereo unspecified) | > 100 µM | > 100 µM | > 100 µM | > 100 µM | > 100 µM | > 100 µM | > 100 µM | > 100 µM |  | > 100 µM |  |  |  |  |  |  |  |  | 
CCO[C@]12CCC[C@H]1[C@@H]1C(=O)c3ccccc3C(=O)C1=C(C)O2 | > 100 µM | 94.7 µM | 97.9 µM | > 100 µM | > 100 µM | > 100 µM | > 100 µM | 59.1 µM | > 100 | > 100 µM |  |  |  |  |  |  |  |  | 
CSc1ccc(/C=C2\N=C(c3ccccc3)N(/N=C3\C(=O)Nc4ccccc43)C2=O)cc1 | > 100 µM | > 100 µM | > 100 µM | > 100 µM | > 100 µM | > 100 µM | > 100 µM | > 100 µM | > 100 | > 100 µM |  |  |  |  |  |  |  |  | 
COc1ccc2c(c1)/C(=C\c1c(Cl)n(-c3ccccc3)c3ccccc13)C(=O)N2 | 51.1 µM | > 100 µM | 41.4 µM | 35.5 µM | 22.2 µM | 10.7 µM | 41.6 µM | > 100 µM | 32 | 17.6 µM |  |  |  |  |  |  |  |  | 
COc1cc([N+](=O)[O-])ccc1NC(=O)c1cccc([N+](=O)[O-])c1O | 68 µM | > 100 µM | > 100 µM | 71.8 µM | > 100 µM | 55.4 µM | 75.2 µM | > 100 µM | 51.7 |  |  |  |  |  |  |  |  |  | 
Nc1nc(OCC2CCCCC2)c2[nH]cnc2n1 | 22.1 µM | > 100 µM | 42.3 µM | 56.3 µM | > 67.8 µM | 59.8 µM | 45 µM | > 59.1 µM | 54.4 | 42.7 µM |  |  |  |  |  |  |  |  | 
CC1(C=O)CCC23COC4(CCC5C6(C)CCC(OC7OCC(OC8OC(CO)C(O)C(OC9OC(CO)C(O)C(O)C9O)C8OC8OCC(O)C(O)C8O)C(O)C7OC7OC(CO)C(O)C(O)C7O)C(C)(C)C6CCC5(C)C4(C)CC2O)C3C1 (stereo unspecified) | 2.98 µM | > 100 µM | 2.38 µM |  | 2.17 µM | 1.41 µM | 2.63 µM | 0.617 µM | 1.94 | 1.53 µM |  |  |  |  |  |  |  |  | 
COC(=O)/C=C1\CCCN1CCc1cc2c(cc1CC#N)OCO2 | > 100 µM | > 100 µM | > 100 µM | > 100 µM | 93.7 µM | > 100 µM | > 100 µM | > 100 µM | 80.2 | > 100 µM |  |  |  |  |  |  |  |  | 
CCOC(=O)Nc1cc2c(c(N)n1)N=C(c1ccc3ccccc3c1)CN2 | 5.15 µM | 10.3 µM | > 64.6 µM | 5.29 µM | 1.47 µM | > 100 µM | 0.427 µM | > 100 µM | 35.2 | 6.16 µM |  |  |  |  |  |  |  |  | 
Cc1ccc(N=NC(C2=NC(=O)CS2)c2nc3ccccc3[nH]2)cc1 (stereo unspecified) |  | > 100 µM | > 100 µM | > 100 µM |  | > 100 µM | > 100 µM | > 100 µM | > 100 | > 100 µM |  |  |  |  |  |  |  |  | 
Cc1ccc([N+](=O)[O-])cc1S(=O)(=O)Nc1ccc(C2=NOC(c3ccccc3O)C2)cc1 (stereo unspecified) | > 100 µM | > 100 µM | 22.4 µM | > 100 µM | 24.8 µM | 21.4 µM | > 100 µM | 13.4 µM | 32.6 | > 100 µM |  |  |  |  |  |  |  |  | 

From PubChem BioAssay (NCI)
